Data: paper PMC4747383, “Design of a peptidic inhibitor that targets the dimer interface of a prototypic galectin” (Oncotarget, 2015)
Entries after “also recorded” stand apart in the source; their conditions may differ. No end group written: not given here.

Legend:
recombinant hGal-7 = test: Disruption of hGal-7 homodimers, native gel electrophoresis/Western blot; format: biochemical, human; details: for disruption of hGal-7 homodimers (in words): 0.5 μM recombinant hGal-7, 20 mM potassium phosphate pH 7.1, 1 h at 4°C
Excerpt: To measure the ability of the peptides to disrupt the formation of hGal-7 dimers, we used mild denaturing native gel electrophoresis, a commonly used approach to visualize monomer-dimer equilibrium (Fig. 1A and Supplementary Fig. S1). […] This specificity at disrupting hGal-7 dimer formation is provided by distinct three-dimensional arrangements between otherwise very similar galectin homologues. Indeed, while all monomeric galectins reveal identical topologies, dimer formation in hGal-7 proceeds through a “back-to-back” topology of the monomers while other galectins, including hGal-1 and hGal-2, adopt a “side-by-side” structural arrangement (Fig. 1B). This structural organization provides additional means to specifically target and disrupt galectin function.
Incubation of the recombinant B. hGal-1 and C. hGal-2 with hGal-7(129–135) was performed in the same potassium phosphate buffer. The effect of hGal-7(129–135) on the monomeric and dimeric forms of hGal-7/hGal-1/hGal-2 was assessed by Western blotting in native conditions with respective antibodies. The hGal-1/hGal-2 films were overexposed. PACAP28–38 was the control peptide used in order to ensure the specificity of hGal-7(129–135). Recombinant hGal-7 (0.5 μM) was also incubated with increasing concentrations of hGal-7(129–135) in 0.1 mM D. lactose or E. LacNac solutions. Results are representative of three independent experiments.
Human Gal-7 cDNA was cloned into pET-22b(+) using NdeI and HindIII restriction enzymes. Human pET-Gal-1 vector was generously donated by Dr. S. Sato (McGill University, QC, Canada). The proteins were produced in E. coli BL21 (DE3) cells at 37°C. Isopropyl β-D-1-thiogalactopyranoside (IPTG) (1 mM) was added to the bacterial culture at OD600nm = 0.6–0.7 and then incubated for 4 h at 37°C to allow protein production. Bacterial pellets were resuspended in lysis buffer (0.7 mg/mL lysozyme, 10 mM Tris pH 8, 100 mM NaCl, 1 mM EDTA, 1 mM DTT and a protease inhibitor cocktail) and then incubated for 1 h at 37°C prior to centrifugation for 30 min at 15,000 × g (4°C). The supernatant was then filtered with 500 mL bottle top filter ([…]) (Corning, New York, NY, USA) and then ran through a lactose-agarose column (Sigma, St. Louis, MO, USA). The protein was eluted in 1 mL fractions with 150 mM lactose solution. Purified fractions were analyzed by SDS-PAGE. The hGal-7 was then concentrated and purified using Centrifugal filter units (Amicon Ultra-15, 10K) (EMD, Millipore, Etobicoke, ON) in 20 mM potassium phosphate at pH 7.1. All subsequent experiments with the recombinant proteins were performed in the same buffer solution unless mentioned otherwise. Brilliant Coomassie blue was purchased from BioRad (Bio-Rad Laboratories, Mississauga, ON, Canada). The recombinant protein hGal-2 was purchased from MyBiosource (San Diego, CA, USA). […]
gaI-7 (0.5 μM) was incubated with increasing concentrations of biotin-labeled hGaI-7129–135 in 20 mM potassium phosphate buffer (pH 7.1) for 60 min at 4°C beforeWestern blot analysis in low SDS-PAGE using an anti-gaI-7 antibody. B. Similar experiments were carried out using recombinant human B. gaI-1 and C. gaI-2. Results are representative of two independent experiments.
(also on this page, place not known: www.impactjournals.com/oncotarget/ Oncotarget, Materials 2015 Supplementary hGaI-7 129–135.)

Jurkat T cells = test: hGal-7-induced apoptosis of Jurkat T cells, PARP-1 cleavage (Western blot); format: cell-based; details: hGal-7 pre-incubated with peptide, then Jurkat cells 4 h at 37°C, serum-free RPMI, Supplementary Fig. S3: peptide 200 μM
Method: Apoptosis was measured by Western blot analysis of PARP-1 cleavage. The PACAP28–38 was used as a control. β-actin was used as a loading control. B. Flow cytometric analysis of Jurkat T cells with stained Annexin V (FL1) and propidium iodide-PI (FL3) following binding of recombinant hGal-7 with or without hGal-7(129–135). Cells in the lower right quadrant are representative of annexin V-positive/PI-negative, or early apoptotic cells. Cells in the upper right quadrant indicate annexin V-positive/PI-positive, or late apoptotic cells. C. Histogram showing the percentages of annexin V-positive Jurkat T cells obtained by adding the percentages of cells found in the lower and upper right quadrants. Results are representative of three independent experiments. Error bars represent standard deviation.
For the apoptosis tests, whole-cell extracts were homogenized and resuspended in RIPA buffer (Thermo Fisher Scientific, Rockford, IL, USA) containing protease inhibitors (Roche, Laval, QC, Canada). Equal amounts of whole-cell extracts (25 μg) were separated on SDS-PAGE and transferred onto nitrocellulose membranes (Bio-Rad Laboratories). The membranes were first blocked with 5% milk [w/v] in TBS/0.5% Tween 20 [v/v] for 1 h at room temperature and subsequently blotted overnight in a solution of TBS containing 3% BSA [w/v] and 0.5% Tween 20 [v/v]. The following antibodies were used: a rabbit anti-poly-(ADP-ribose) polymerase (PARP)-1 (p25) polyclonal antibody (1:5000; Epitomics, Burlingame, CA, USA) and a mouse anti-β-actin (1:10000; Sigma-Aldrich, St. Louis, MO, USA). Secondary antibodies consisted of horseradish peroxidase-conjugated donkey anti-rabbit (GE Healthcare, Buckinghamshire, England) and sheep anti-mouse (GE Healthcare) IgG. Detection was performed using the enhanced chemiluminescence method (GE Healthcare). […]
concentrations of recombinant human gaI-7 were pre-incubated with the hGaI-7129–135 (200 μM) prior to its addition to A. Jurkat T cells or B. PBMCs. Apoptosis wa, measured after 4 h at 37°C in serum·free conditions. […]

[1] = 0.5 μM recombinant hGal-7, 20 mM potassium phosphate pH 7.1, pre-incubated 1 h at 4°C, native PAGE, Western blot, representative of three independent experiments

In the case of “H-LDSVRIP-NH2 [hGal-7(129–135), peptide corresponding to hGal-7 segment between residues 129–135]”, the “disruption of hGal-7 homodimers in presence of LacNac” value (recombinant hGal-7; 0.5 μM hGal-7, 0.1 mM LacNac, representative of three independent experiments) is reported as “not inhibited by the presence of lactose or LacNac”, the “disruption of hGal-7 homodimers in presence of lactose” value (recombinant hGal-7; 0.5 μM hGal-7, 0.1 mM lactose, representative of three independent experiments) is reported as “not inhibited by the presence of lactose” and the “disruption of hGal-7 homodimers (in words)” value (recombinant hGal-7; native PAGE, Western blot) is reported as “Disruption of the hGal-7 dimer; also recorded: effective at relatively high concentrations”. The “lowest concentration giving a consistent decrease of hGal-7 homodimers” value (recombinant hGal-7; [1]) was 10 µM, the “saturation dose for decrease of hGal-7 homodimers” value (recombinant hGal-7; [1]) was 100 µM and the “inhibition of hGal-7-induced apoptosis in Jurkat T cells (PARP-1 cleavage)” value (from here on “inhibition of hGal-7-induced apoptosis”) (Jurkat T cells) was “inhibited the ability of hGal-7 to induce apoptosis in Jurkat T cells; also recorded: dose-dependent”. The “inhibition of hGal-7-induced apoptosis” value (Jurkat T cells; listed as hGaI-7129–135) was “decreases gaI-7-induced apoptosis”.
For “PACAP(28–38): an inactive fragment of the human Pituitary Adenylate Cyclase-Activating Polypeptide (PACAP) (GKRYKQRVKNK-NH2; ends and bridges not checked; UniProt P18509 159-169, looked up, fragment)”, the “disruption of hGal-7 homodimers (in words)” value (recombinant hGal-7; native PAGE, Western blot) was “No such effect was observed” and the “inhibition of hGal-7-induced apoptosis” value (Jurkat T cells) was “No such effect was observed with the control peptide”.
